Data as given in PubChem BioAssay AID248 (DTP/NCI, 2004).
Several values for one entry are separate records, joined by “and”; a condition that tells them apart may be missing. Identical values can stand only once. Toxic doses and inconclusive results are not listed. Cut-off read from the data, not from the text of the source: active = T/C of 150% or more; inactive = T/C below 125%.

Test system: L1210 leukemia ip in BDF1 mice, survival T/C
Assay: NCI In Vivo Anticancer Drug Screen. Data for tumor model L1210 Leukemia (intraperitoneal) in B6D2F1 (BDF1) mice
Conditions: endpoint: mean survival time, higher = longer survival
Outline: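 In this screen, tumor-bearing mice given compound are compared to those given vehicle, and their survival values are reported as a treated-to-control quotient.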

[1] = dose: 100.0 mg/kg/injection, schedule: Q04DX003 (ip), vehicle: Klucel (hydroxypropylcellulose) (HPC)
[2] = dose: 50.0 mg/kg/injection, schedule: Q01DX001 (ip), vehicle: carboxymethylcellulose (CMC)
[3] = dose: 100.0 mg/kg/injection, schedule: Q01DX001 (ip), vehicle: carboxymethylcellulose (CMC)
[4] = dose: 200.0 mg/kg/injection, schedule: Q01DX001 (ip), vehicle: carboxymethylcellulose (CMC)
[5] = dose: 400.0 mg/kg/injection, schedule: Q01DX001 (ip), vehicle: carboxymethylcellulose (CMC)
[6] = dose: 100.0 mg/kg/injection, schedule: Q01DX001 (ip), vehicle: saline
[7] = dose: 200.0 mg/kg/injection, schedule: Q01DX001 (ip), vehicle: saline
[8] = dose: 400.0 mg/kg/injection, schedule: Q01DX001 (ip), vehicle: saline
[9] = dose: 100.0 mg/kg/injection, schedule: Q04DX003 (ip), vehicle: saline with Tween-80
[10] = dose: 200.0 mg/kg/injection, schedule: Q04DX003 (ip), vehicle: saline with Tween-80
[11] = dose: 400.0 mg/kg/injection, schedule: Q04DX003 (ip), vehicle: saline with Tween-80
[12] = dose: 100.0 mg/kg/injection, schedule: Q04DX003 (ip), vehicle: saline

Measured: T/C

COC(=O)CCNCCSC(=O)c1ccccc1
inactive: dose: 100.0 mg/kg/injection, schedule: Q04DX003 (ip), vehicle: acetone 103 % of control | dose: 200.0 mg/kg/injection, schedule: Q04DX003 (ip), vehicle: acetone 105 % of control | dose: 400.0 mg/kg/injection, schedule: Q04DX003 (ip), vehicle: acetone 102 % of control

CCOC(=O)c1cnc(SC)nc1N(C)c1ccccc1
inactive: dose: 44.0 mg/kg/injection, schedule: Q04DX003 (ip), vehicle: Klucel (hydroxypropylcellulose) (HPC) 98 % of control | dose: 66.0 mg/kg/injection, schedule: Q04DX003 (ip), vehicle: Klucel (hydroxypropylcellulose) (HPC) 99 % of control | dose: 67.0 mg/kg/injection, schedule: Q04DX003 (ip), vehicle: Klucel (hydroxypropylcellulose) (HPC) 95 % of control | [1] 98 % of control and 101 % of control | dose: 150.0 mg/kg/injection, schedule: Q04DX003 (ip), vehicle: Klucel (hydroxypropylcellulose) (HPC) 95 % of control and 97 % of control

CC(C)O[Si](C)(C)CCl
inactive: [2] 98 % of control | [3] 86 % of control | [4] 90 % of control | [5] 92 % of control

C(CC1CCNCC1)CC1CCNCC1
inactive: dose: 10.0 mg/kg/injection, schedule: Q01DX Z (ip), vehicle: saline 96 % of control | dose: 30.0 mg/kg/injection, schedule: Q01DX Z (ip), vehicle: saline 96 % of control

O=C1CC(=O)N(c2ccccc2)N1
inactive: [6] 96 % of control | [7] 98 % of control | [8] 98 % of control

Cc1cccc(OCCOC(=O)Nc2ccc(C)cc2[N+](=O)[O-])c1
inactive: dose: 50.0 mg/kg/injection, schedule: Q01DX009 (ip), vehicle: saline with Tween-80 97 % of control | dose: 100.0 mg/kg/injection, schedule: Q01DX009 (ip), vehicle: saline with Tween-80 87 % of control | [9] 103 % of control | [10] 94 % of control | [11] 99 % of control

Cc1ccc(S(=O)(=O)NCC(=O)NCCC#N)cc1
inactive: dose: 100.0 mg/kg/injection, schedule: Q01DX001 (ip), vehicle: Klucel (hydroxypropylcellulose) (HPC) 103 % of control | dose: 200.0 mg/kg/injection, schedule: Q01DX001 (ip), vehicle: Klucel (hydroxypropylcellulose) (HPC) 97 % of control | dose: 400.0 mg/kg/injection, schedule: Q01DX001 (ip), vehicle: Klucel (hydroxypropylcellulose) (HPC) 92 % of control

CC(C)(C)c1ccc(CN2CCN(C(c3ccccc3)c3ccc(Cl)cc3)CC2)cc1 (stereo not drawn)
inactive: dose: 12.5 mg/kg/injection, schedule: Q01DX009 (ip), vehicle: Klucel (hydroxypropylcellulose) (HPC) 98 % of control | dose: 25.0 mg/kg/injection, schedule: Q01DX009 (ip), vehicle: Klucel (hydroxypropylcellulose) (HPC) 91 % of control | dose: 25.0 mg/kg/injection, schedule: Q04DX003 (ip), vehicle: Klucel (hydroxypropylcellulose) (HPC) 93 % of control | dose: 50.0 mg/kg/injection, schedule: Q01DX009 (ip), vehicle: Klucel (hydroxypropylcellulose) (HPC) 91 % of control | dose: 50.0 mg/kg/injection, schedule: Q04DX003 (ip), vehicle: Klucel (hydroxypropylcellulose) (HPC) 93 % of control | [1] 96 % of control | dose: 200.0 mg/kg/injection, schedule: Q04DX003 (ip), vehicle: Klucel (hydroxypropylcellulose) (HPC) 91 % of control

CCC1SC(CC)(CC(C)C)C(=O)NC1=O (stereo not drawn)
inactive: [3] 102 % of control | [4] 94 % of control | [5] 94 % of control

Cc1cccc(C)c1NC(=O)Nc1cccc(O)c1
inactive: dose: 100.0 mg/kg/injection, schedule: Q01DX009 (ip), vehicle: Klucel (hydroxypropylcellulose) (HPC) 101 % of control | dose: 200.0 mg/kg/injection, schedule: Q01DX009 (ip), vehicle: Klucel (hydroxypropylcellulose) (HPC) 108 % of control | dose: 400.0 mg/kg/injection, schedule: Q01DX009 (ip), vehicle: Klucel (hydroxypropylcellulose) (HPC) 103 % of control

O=C1CC(c2ccccn2)=NN1c1ccccc1
inactive: [9] 98 % of control | [10] 94 % of control | [11] 91 % of control

CCCCCCCCCCCCCCCC1CCCC(C)N1 (stereo not drawn)
inactive: dose: 6.25 mg/kg/injection, schedule: Q04DX002 (ip), vehicle: saline with Tween-80 104 % of control | dose: 12.5 mg/kg/injection, schedule: Q04DX002 (ip), vehicle: saline with Tween-80 96 % of control | dose: 25.0 mg/kg/injection, schedule: Q04DX002 (ip), vehicle: saline with Tween-80 100 % of control

N=C(N)c1ccc(OCCCCOc2ccc(NC(=O)Nc3ccc(S(=O)(=O)F)cc3Cl)cc2)cc1
inactive: dose: 100.0 mg/kg/injection, schedule: Q01DX001 (ip), vehicle: saline with Tween-80 91 % of control | dose: 200.0 mg/kg/injection, schedule: Q01DX001 (ip), vehicle: saline with Tween-80 90 % of control

C[N+]1(CCCNC2=CC(=O)C(NCCC[N+]3(C)CCCCC3)=CC2=O)CCCCC1
inactive: dose: 0.5 mg/kg/injection, schedule: Q01DX001 (ip), vehicle: saline 105 % of control

O=C(CCCN1CCC(O)(c2ccc(C(F)(F)F)cc2)CC1)c1ccc(N2CCC(O)CC2)cc1
inactive: dose: 100.0 mg/kg/injection, schedule: Q04DX002 (ip), vehicle: saline with Tween-80 93 % of control | dose: 200.0 mg/kg/injection, schedule: Q04DX002 (ip), vehicle: saline with Tween-80 100 % of control

NC(=S)N/N=C\c1cn(Cc2ccccc2)c2ccccc12
inactive: dose: 50.0 mg/kg/injection, schedule: Q01DX001 (ip), vehicle: saline 95 % of control | [6] 101 % of control | [7] 101 % of control | [8] 97 % of control

CCCN(/C=C/C=C/C=[N+](CCC)CCC)CCC
inactive: dose: 0.03 mg/kg/injection, schedule: Q04DX003 (ip), vehicle: saline 100 % of control | dose: 0.05 mg/kg/injection, schedule: Q04DX003 (ip), vehicle: saline 109 % of control | dose: 0.1 mg/kg/injection, schedule: Q04DX003 (ip), vehicle: saline 98 % of control

COc1cc2cc3c4cc(OC)c(OC)cc4cc[n+]3c(/C=C\c3ccccc3O)c2cc1OC
inactive: [2] 106 % of control | [3] 114 % of control | dose: 100.0 mg/kg/injection, schedule: Q04DX002 (ip), vehicle: carboxymethylcellulose (CMC) 100 % of control and 104 % of control | dose: 100.0 mg/kg/injection, schedule: Q04DX003 (ip), vehicle: carboxymethylcellulose (CMC) 109 % of control and 118 % of control | [4] 119 % of control | dose: 200.0 mg/kg/injection, schedule: Q04DX002 (ip), vehicle: carboxymethylcellulose (CMC) 100 % of control and 103 % of control | dose: 200.0 mg/kg/injection, schedule: Q04DX003 (ip), vehicle: carboxymethylcellulose (CMC) 110 % of control and 123 % of control | [5] 116 % of control | dose: 400.0 mg/kg/injection, schedule: Q04DX002 (ip), vehicle: carboxymethylcellulose (CMC) 97 % of control and 104 % of control | dose: 400.0 mg/kg/injection, schedule: Q04DX003 (ip), vehicle: carboxymethylcellulose (CMC) 110 % of control and 115 % of control

CN(C)CC(CN1c2ccccc2Sc2ccccc21)N(C)C (stereo not drawn)
inactive: dose: 6.25 mg/kg/injection, schedule: Q01DX009 (ip), vehicle: saline 94 % of control | dose: 12.5 mg/kg/injection, schedule: Q01DX009 (ip), vehicle: saline 105 % of control | dose: 25.0 mg/kg/injection, schedule: Q01DX009 (ip), vehicle: saline 92 % of control | dose: 25.0 mg/kg/injection, schedule: Q04DX003 (ip), vehicle: saline 96 % of control | dose: 50.0 mg/kg/injection, schedule: Q01DX009 (ip), vehicle: saline 101 % of control | dose: 50.0 mg/kg/injection, schedule: Q04DX003 (ip), vehicle: saline 93 % of control | [12] 90 % of control

COC(=O)CCNS(=O)(=O)c1ccc(C)cc1
inactive: [2] 92 % of control | [3] 94 % of control | [4] 94 % of control | [5] 92 % of control

O=C(/C=C/c1cccnc1)NCC(O)CO (stereo not drawn)
inactive: dose: 100.0 mg/kg/injection, schedule: Q01DX009 (ip), vehicle: saline 101 % of control | [12] 108 % of control | dose: 200.0 mg/kg/injection, schedule: Q01DX009 (ip), vehicle: saline 97 % of control | dose: 200.0 mg/kg/injection, schedule: Q04DX003 (ip), vehicle: saline 105 % of control | dose: 400.0 mg/kg/injection, schedule: Q01DX009 (ip), vehicle: saline 100 % of control | dose: 400.0 mg/kg/injection, schedule: Q04DX003 (ip), vehicle: saline 96 % of control
